Assay results published in patent US9920010B2, “CXCR7 receptor modulators” (IDORSIA PHARMACEUTICALS LTD, priority 2013, dated 2018).
pEC50: −log10 of the molar value.

What follows are molecules tested against T1, CXCR7 (Homo sapiens, UniProt P25106) (assay: PathHunter CHO-K1 CXCR7 b-arrestin recruitment assay (CXCR7 agonistic activity)). Conditions: PathHunter CHO-K1 CXCR7 b-arrestin cell line.
T1 construct: host or cells: CHO-K1 (PathHunter CHO-K1 CXCR7 b-arrestin cell line, stably transfected)
T1 sequence (P25106 whole entry): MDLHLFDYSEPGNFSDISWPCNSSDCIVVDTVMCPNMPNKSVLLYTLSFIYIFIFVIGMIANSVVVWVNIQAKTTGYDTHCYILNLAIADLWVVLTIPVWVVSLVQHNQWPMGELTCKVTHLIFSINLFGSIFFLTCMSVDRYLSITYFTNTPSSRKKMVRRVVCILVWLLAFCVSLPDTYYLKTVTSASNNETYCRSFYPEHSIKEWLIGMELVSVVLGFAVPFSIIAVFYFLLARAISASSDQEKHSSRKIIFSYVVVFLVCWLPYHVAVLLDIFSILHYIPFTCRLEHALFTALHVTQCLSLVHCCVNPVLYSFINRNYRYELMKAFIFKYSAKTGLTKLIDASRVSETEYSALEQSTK
T1 sequence (P32121 whole entry partner): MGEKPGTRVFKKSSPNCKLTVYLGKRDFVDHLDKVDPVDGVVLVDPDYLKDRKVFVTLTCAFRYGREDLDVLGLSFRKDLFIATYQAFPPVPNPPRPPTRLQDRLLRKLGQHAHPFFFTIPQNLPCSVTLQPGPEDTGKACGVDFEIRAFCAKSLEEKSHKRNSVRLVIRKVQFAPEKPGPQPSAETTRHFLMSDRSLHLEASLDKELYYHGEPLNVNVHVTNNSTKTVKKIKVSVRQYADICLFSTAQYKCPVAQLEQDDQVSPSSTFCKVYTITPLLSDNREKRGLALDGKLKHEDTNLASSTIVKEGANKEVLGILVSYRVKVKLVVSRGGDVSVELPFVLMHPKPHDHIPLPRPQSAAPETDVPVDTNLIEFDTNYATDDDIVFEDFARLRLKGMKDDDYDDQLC
Assay type: cell-based
In short: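 Stable CHO-K1 line with C-terminally ProLink-tagged CXCR7 and β-arrestin 2–EA fusion; β-arrestin recruitment restores β-gal activity, read by chemiluminescence after 1 h RT detection. Cells seeded 24 h, starved in OPTIMEM 3–4 h, exposed to compounds 90 min at 37 °C in HBSS/HEPES/BSA. Geometric-mean EC50 from repeated measurements.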
For CCN1CCc2cccc(NCC(=O)N(CCN(C)C)Cc3ccc(C)cc3)c2C1 [compound 496], the pEC50 was 7.10.
Molecule CCN1CCc2cccc(NCC(=O)N(CCN(C)C)Cc3ccccc3OC)c2C1 [compound 497] has a pEC50 of 7.11.
With CCN1CCc2cccc(NCC(=O)N(CCN(C)C)Cc3cccc(OC)c3)c2C1 [compound 498] the pEC50 was 6.93.
CCN1CCc2cccc(NCC(=O)N(CCN(C)C)Cc3ccc(OC)cc3)c2C1 [compound 499] gave a pEC50 of 6.61.
With CCN1CCc2cccc(NCC(=O)N(CCN(C)C)Cc3ccccc3Cl)c2C1 [compound 500, N-(2-Chloro-benzyl)-N-(2-dimethylamino-ethyl)-2-(2-ethyl-1,2,3,4-tetrahydro-isoquinolin-8-ylamino)-acetamide] the pEC50 was 7.51.
In the case of CCN1CCc2cccc(NCC(=O)N(CCN(C)C)Cc3cccc(Cl)c3)c2C1 [compound 501], the pEC50 was 7.27.
CCN1CCc2cccc(NCC(=O)N(CCN(C)C)Cc3ccc(Cl)cc3)c2C1 [compound 502] was tested, and the pEC50 was 6.95.
With CCN1CCc2cccc(NCC(=O)N(CCN(C)C)Cc3cccc(F)c3)c2C1 [compound 503] the pEC50 was 7.19.
Work on CCN1CCc2cccc(NCC(=O)N(CCN(C)C)Cc3ccc(F)cc3)c2C1 [compound 504] yielded a pEC50 of 7.03.
CCN1CCc2cccc(NCC(=O)N(CCN(C)C)Cc3cccc(C(F)(F)F)c3)c2C1 [compound 505, N-(2-Dimethylamino-ethyl)-2-(2-ethyl-1,2,3,4-tetrahydro-isoquinolin-8-ylamino)-N-(3-trifluoromethyl-benzyl)-acetamide] was tested, and the pEC50 was 7.38.
In the case of CCN1CCc2cccc(NCC(=O)N(CCN(C)C)Cc3ccc(C(F)(F)F)cc3)c2C1 [compound 506], the pEC50 was 6.81.
CCN1CCc2cccc(NCC(=O)N(CCCN(C)C)Cc3ccccc3)c2C1 [compound 507] was tested, and the pEC50 was 7.13.
CCN1CCc2cccc(NCC(=O)N(CCN3CCCC3)Cc3ccccc3)c2C1 [compound 509, N-Benzyl-2-(2-ethyl-1,2,3,4-tetrahydro-isoquinolin-8-ylamino)-N-(2-pyrrolidin-1-yl-ethyl)-acetamide] showed a pEC50 of 7.44.
With CCN1CCc2cccc(NCC(=O)N(CCN3CCOCC3)Cc3ccccc3C(F)(F)F)c2C1 [compound 510] the pEC50 was 6.96.
CCN1CCc2cccc(NCC(=O)N(CCN(C)C)Cc3ncccc3Cl)c2C1 [compound 511, N-(3-Chloro-pyridin-2-ylmethyl)-N-(2-dimethylamino-ethyl)-2-(2-ethyl-1,2,3,4-tetrahydro-isoquinolin-8-ylamino)-acetamide] showed a pEC50 of 7.54.
CCN1CCc2cccc(NCC(=O)N(CCC(C)C)Cc3ccccc3C(F)(F)F)c2C1 [compound 513] gave a pEC50 of 6.42.
For CCN(CC)CCN(Cc1ccccc1C(F)(F)F)C(=O)CNc1cccc2c1CN(CC)CC2 [compound 514, N-(2-Diethylamino-ethyl)-2-(2-ethyl-1,2,3,4-tetrahydro-isoquinolin-8-ylamino)-N-(2-trifluoromethyl-benzyl)-acetamide], the pEC50 was 8.22.
With CCN1CCc2cccc(NCC(=O)N(CCN(C)C(=O)OC(C)(C)C)Cc3ccccc3C(F)(F)F)c2C1 [compound 515] the pEC50 was 6.42.
With CCN1CCc2cccc(NCC(=O)N(CCC#N)Cc3ccccc3C(F)(F)F)c2C1 [compound 516] the pEC50 was 6.74.
For CCN1CCc2cccc(NCC(=O)N(CCN3CCCC3=O)Cc3ccccc3C(F)(F)F)c2C1 [compound 517], the pEC50 was 6.52.
CCN1CCc2cccc(NCC(=O)N(Cc3ccccc3C(F)(F)F)C3CCOCC3)c2C1 [compound 519] showed a pEC50 of 6.60.
Molecule CCN1CCc2cccc(NCC(=O)N(Cc3nc(C)cs3)Cc3ccccc3C(F)(F)F)c2C1 [compound 520] has a pEC50 of 6.73.
With CCN1CCc2cccc(NCC(=O)N(CCN(C)C)Cc3ccc(F)cc3C(F)(F)F)c2C1 [compound 523] the pEC50 was 7.24.
In the case of CCN1CCc2cccc(NCC(=O)N(CCN(C)C)Cc3c(F)cccc3F)c2C1 [compound 524, N-(2,6-Difluoro-benzyl)-N-(2-dimethylamino-ethyl)-2-(2-ethyl-1,2,3,4-tetrahydro-isoquinolin-8-ylamino)-acetamide], the pEC50 was 7.57.
Molecule CCN1CCc2cccc(NCC(=O)N(CCN(C)C)Cc3ncccc3C)c2C1 [compound 525, N-(2-Dimethylamino-ethyl)-2-(2-ethyl-1,2,3,4-tetrahydro-isoquinolin-8-ylamino)-N-(3-methyl-pyridin-2-ylmethyl)-acetamide] has a pEC50 of 7.39.
Molecule CCN1CCc2cccc(NCC(=O)N(CCN(C)C)Cc3cccc(C)n3)c2C1 [compound 526, N-(2-Dimethylamino-ethyl)-2-(2-ethyl-1,2,3,4-tetrahydro-isoquinolin-8-ylamino)-N-(6-methyl-pyridin-2-ylmethyl)-acetamide] has a pEC50 of 7.36.
CCN1CCc2cccc(NCC(=O)N(CCN(C)C)Cc3ccc(C)cn3)c2C1 [compound 527] showed a pEC50 of 6.79.
CCN1CCc2cccc(NCC(=O)N(CCN(C)C)Cc3ncccc3F)c2C1 [compound 528, N-(2-Dimethylamino-ethyl)-2-(2-ethyl-1,2,3,4-tetrahydro-isoquinolin-8-ylamino)-N-(3-fluoro-pyridin-2-ylmethyl)-acetamide] showed a pEC50 of 7.38.
Molecule CCN1CCc2cccc(NCC(=O)N(CCN(C)C)Cc3ccc(F)cn3)c2C1 [compound 529] has a pEC50 of 6.76.
CCN1CCc2cccc(NCC(=O)N(CCN(C)C)Cc3ccc(Cl)cn3)c2C1 [compound 530] gave a pEC50 of 6.76.
For CCN1CCc2cccc(NCC(=O)N(CCN(C)C)Cc3ncccc3C(F)(F)F)c2C1 [compound 531, N-(2-Dimethylamino-ethyl)-2-(2-ethyl-1,2,3,4-tetrahydro-isoquinolin-8-ylamino)-N-(3-trifluoromethyl-pyridin-2-ylmethyl)-acetamide], the pEC50 was 8.22.
CCN1CCc2cccc(NCC(=O)N(CCN(C)C)Cc3cccc(C(F)(F)F)n3)c2C1 [compound 532, N-(2-Dimethylamino-ethyl)-2-(2-ethyl-1,2,3,4-tetrahydro-isoquinolin-8-ylamino)-N-(6-trifluoromethyl-pyridin-2-ylmethyl)-acetamide] showed a pEC50 of 7.52.
Molecule CCN1CCc2cccc(NCC(=O)N(CCN(C)C)Cc3cncc(Cl)c3)c2C1 [compound 533] has a pEC50 of 6.44.
CCN1CCc2cccc(NCC(=O)N(CCN(C)C)Cc3cnc(N(C)C)nc3)c2C1 [compound 534] was tested, and the pEC50 was 6.40.
With CCN1CCc2cccc(NCC(=O)N(CCN(C)C)Cc3cc(C)on3)c2C1 [compound 535] the pEC50 was 6.45.
CCN1CCc2cccc(NCC(=O)N(CCN(C)C)Cc3nc(C)cs3)c2C1 [compound 536] showed a pEC50 of 7.04.
In the case of CCN1CCc2cccc(NCC(=O)N(CCc3ccccc3C)CCN(C)C)c2C1 [compound 537], the pEC50 was 6.66.
CCN1CCc2cccc(NCC(=O)N(CCc3ccccc3C(F)(F)F)CCN(C)C)c2C1 [compound 538] was tested, and the pEC50 was 6.81.
Molecule CCN1CCc2cccc(NCC(=O)N(CCc3cccc(C(F)(F)F)c3)CCN(C)C)c2C1 [compound 539] has a pEC50 of 6.94.
Molecule CCN1CCc2cccc(NCC(=O)N(CCN(C)C)Cc3ccccn3)c2C1 [compound 540] has a pEC50 of 6.66.
CCN1CCc2cccc(NCC(=O)N(CCN(C)C)Cc3nccs3)c2C1 [compound 541] showed a pEC50 of 6.76.
In the case of CCN1CCc2cccc(NCC(=O)N(CCc3ccccc3)CCN(C)C)c2C1 [compound 542], the pEC50 was 6.95.
Molecule CCN1Cc2c(cccc2NCC(=O)N(CCN(C)C)Cc2ccccc2C(F)(F)F)CC1=O [compound 543] has a pEC50 of 7.08.
In the case of CN(C)CCN(Cc1ccccc1C(F)(F)F)C(=O)CNc1cccc2c1CN(S(=O)(=O)c1ccccc1)CC2 [compound 545], the pEC50 was 7.10.
CCN1CCc2cccc(OC(C)C(=O)N(CCN(C)C)Cc3ccccc3C(F)(F)F)c2C1 (centres unmarked) [compound 548] showed a pEC50 of 6.88.
In the case of CCN1CCc2cccc(OC3(C(=O)N(CCN(C)C)Cc4ccccc4C(F)(F)F)CCC3)c2C1 [compound 549], the pEC50 was 6.59.
For CCN1CCc2cccc(/C=C/C(=O)N(CCN(C)C)Cc3ccccc3C(F)(F)F)c2C1 [compound 550, (E)-N-(2-Dimethylamino-ethyl)-3-(2-ethyl-1,2,3,4-tetrahydro-isoquinolin-8-yl)-N-(2-trifluoromethyl-benzyl)-acrylamide], the pEC50 was 8.70.
CN(C)CCN(Cc1ccccc1C(F)(F)F)C(=O)CNc1cccc2c1CN(C(=O)C(C)(C)C)CC2 [compound 551, N-(2-Dimethylamino-ethyl)-2-[2-(2,2-dimethyl-propionyl)-1,2,3,4-tetrahydro-isoquinolin-8-ylamino]-N-(2-trifluoromethyl-benzyl)-acetamide] gave a pEC50 of 7.46.
CN(C)CCN(Cc1ccccc1C(F)(F)F)C(=O)CNc1cccc2c1CN(C(=O)c1ccccc1)CC2 [compound 552, 2-(2-Benzoyl-1,2,3,4-tetrahydro-isoquinolin-8-ylamino)-N-(2-dimethylamino-ethyl)-N-(2-trifluoromethyl-benzyl)-acetamide] was tested, and the pEC50 was 8.40.
Molecule CC(C)OC(=O)N1CCc2cccc(NCC(=O)N(CCN(C)C)Cc3ccccc3C(F)(F)F)c2C1 [compound 553, 8-({[(2-Dimethylamino-ethyl)-(2-trifluoromethyl-benzyl)-carbamoyl]-methyl}-amino)-3,4-dihydro-1H-isoquinoline-2-carboxylic acid isopropyl ester] has a pEC50 of 7.85.
In the case of CN(C)CCN(Cc1ccccc1C(F)(F)F)C(=O)CNc1cccc2c1CN(CC1CCCCC1)CC2 [compound 554, 2-(2-Cyclohexylmethyl-1,2,3,4-tetrahydro-isoquinolin-8-ylamino)-N-(2-dimethylamino-ethyl)-N-(2-trifluoromethyl-benzyl)-acetamide], the pEC50 was 8.30.
CCN1CCc2cccc(NCC(=O)N(CCN(C)C)Cc3ccccc3C(F)(F)F)c2C1 [compound 555, N-(2-Dimethylamino-ethyl)-2-(2-ethyl-1,2,3,4-tetrahydro-isoquinolin-8-ylamino)-N-(2-trifluoromethyl-benzyl)-acetamide] showed a pEC50 of 8.22.
Molecule CCCN1CCc2cccc(NCC(=O)N(CCN(C)C)Cc3ccccc3C(F)(F)F)c2C1 [compound 556, N-(2-Dimethylamino-ethyl)-2-(2-propyl-1,2,3,4-tetrahydro-isoquinolin-8-ylamino)-N-(2-trifluoromethyl-benzyl)-acetamide] has a pEC50 of 8.10.
